Data as given in patent publication US10919935B2, “Antimicrobial peptide derived from myxinidin peptide and uses thereof” (INDUSTRY-ACADEMIC COOPERATION FOUNDATION, CHOSUN UNIVERSITY, priority 2015, dated 2021).
Residues, ends and D or L forms follow the SMILES beside them.

Key:
Assay type in all cases: cell-based
[1] = system: Escherichia coli ATCC 25922
Experimental: (§1) To compare the antimicrobial activity of the peptide produced by the method of Example 1, the inventors of the present invention measured the growth minimum inhibitory concentration (MIC), which is minimum concentration of the peptide showing no dissociation of bacterial cells.
(§2) Specifically, the bacterial strain described in the following Table 2 was purchased and cultured in each medium to a mid-log phase. Then, after dilution to bacterial cell concentration of 2×10^5 cells/100 μl, the cells were inoculated to a microtiter plate (NUNC, USA). Thereafter, myxinidin 1, myxinidin 2, or myxinidin 3 peptides which have been synthesized in Example 1 above was diluted, 1/2 times for each, with BSA (bovine serum albumin) solution in a 96-well plate. After adding the cells to a plate, the cells were cultured for 12 hours at 37° C. By using a microtiter plate reader (Merck Elisa reader, Germany), the absorbance was measured at a wavelength of 600 nm to determine the MIC value of each bacterial strain. As a control group, myxinidin as a mother peptide was subjected to the same processes as above and the MIC value of each bacterial strain was obtained.

[2] = system: Escherichia coli CCARM 1229
Experimental: as §1, §2

[3] = system: Escherichia coli CCARM 1238
Experimental: as §1, §2

[4] = system: Listeria monocytogenes KCTC 3710
Experimental: as §1, §2

[5] = system: Pseudomonas aeruginosa ATCC 27853
Experimental: as §1, §2

[6] = system: Pseudomonas aeruginosa Isolated strain 3592
Experimental: as §1, §2

[7] = system: Pseudomonas aeruginosa Isolated strain 5018
Experimental: as §1, §2

[8] = system: Salmonella typhimurium CCARM 8009
Experimental: as §1, §2

[9] = system: Salmonella typhimurium CCARM 8013
Experimental: as §1, §2

[10] = system: Salmonella typhimurium KCTC 1926
Experimental: as §1, §2

[11] = system: Staphylococcus aureus ATCC 25923
Experimental: as §1, §2

[12] = system: Staphylococcus aureus CCARM 3114
Experimental: as §1, §2

[13] = system: Staphylococcus aureus CCARM 3709
Experimental: as §1, §2

in vitro = details: human, NHK cells (normal human keratinocytes)
Experimental: To determine the cytotoxicity of the peptide produced by the method of Example 1 in normal cell line, toxicity was measured by using NHK cells (Normal Human Keratinocyte cells).
Specifically, NHK cells which have been cultured in Epilife medium with 60 μM calcium (Gibco, USA) containing 10% HKGS (Human Keratinocyte Growth Supplement) (Gibco, USA) were aliquoted in a 96-well plate to have 1×10^4 cells per well. After culturing them for 24 hours, the cells were subjected to a treatment with myxinidin, myxinidin 1, myxinidin 2, or myxinidin 3 peptide, each at concentration of 3.125, 6.25, 12.5, or 25.0 μM/well, followed by reaction for 24 hours in a 5% CO2 incubator. After the culture, a reaction solution containing 5 mg/ml MTT (Thiazolyl Blue Tetrazolium Bromide) dissolved in physiological saline (PBS) was added in an amount of 20 μl to each well and allowed to react for 4 hours. After that, the supernatant was removed, and, by dissolving MTT crystals that are formed by adding 200 μl of DMSO, the absorbance at 560 nm was measured to determine the cell survival ability.

Question: With `CC[C@H](C)[C@H](NC(=O)CN)C(=O)N[C@@H](Cc1c[nH]cn1)C(=O)N[C@@H](CC(=O)O)C(=O)N[C@H](C(=O)N[C@@H](CC(C)C)C(=O)N[C@@H](CCCCN)C(=O)N[C@@H](Cc1ccc(O)cc1)C(=O)NCC(=O)N[C@@H](CCCCN)C(=O)N1CCC[C@H]1C(=O)N[C@@H](CO)C(N)=O)[C@@H](C)CC` [Myxinidin, GIHDILKYGKPS-NH2] (H-GIHDILKYGKPS-NH2) as the compound, how does the “Minimum growth inhibitory concentration” value [1] read?
Answer: >32 µM

Question: And the “Minimum growth inhibitory concentration” value [2]?
Answer: >32 µM

Question: What about the “Minimum growth inhibitory concentration” value [3] of the same compound?
Answer: >32 µM

Question: What about the “Minimum growth inhibitory concentration” value [4] of the same compound?
Answer: >32 µM

Question: What about the “Minimum growth inhibitory concentration” value [5] of the same compound?
Answer: >32 µM

Question: What about the “Minimum growth inhibitory concentration” value [6] of the same compound?
Answer: >32 µM

Question: And the “Minimum growth inhibitory concentration” value [7]?
Answer: >32 µM

Question: And the “Minimum growth inhibitory concentration” value [8]?
Answer: >32 µM

Question: What about the “Minimum growth inhibitory concentration” value [9] of the same compound?
Answer: >32 µM

Question: What about the “Minimum growth inhibitory concentration” value [10] of the same compound?
Answer: >32 µM

Question: What about the “Minimum growth inhibitory concentration” value [11] of the same compound?
Answer: >32 µM

Question: What about the “Minimum growth inhibitory concentration” value [12] of the same compound?
Answer: >32 µM

Question: And the “Minimum growth inhibitory concentration” value [13]?
Answer: >32 µM

Question: And the viability at 24 h, 3.125 µM (in vitro)?
Answer: 100%

Question: What about the viability at 24 h, 6.25 µM (in vitro) of the same compound?
Answer: 98%

Question: What about the viability at 24 h, 12.5 µM (in vitro) of the same compound?
Answer: 98%

Question: What about the viability at 24 h, 25 µM (in vitro) of the same compound?
Answer: 95%
